Data reported in PubChem BioAssay (NCI).
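Grown in 96-well plates, cells were treated for 48 hours with each compound at five concentrations. Insufficient inhibition: endpoint recorded as highest concentration tested. Abbreviation: GI50, concentration required for 50% inhibition of growth. TGI marks complete inhibition of growth.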

Assays:
Assay in all cases: NCI anticancer screen, dose series, 48 h
[1] = test system: SNB-75 CNS
[2] = test system: NCI-H460 lung
[3] = test system: SF-268 CNS
[4] = test system: HCC-2998 colon
[5] = test system: KM12 colon
[6] = test system: MALME-3M melanoma
[7] = test system: A498 renal
[8] = test system: PC-3 prostate
[9] = test system: SK-MEL-5 melanoma
[10] = test system: SNB-19 CNS
[11] = test system: MDA-MB-435
[12] = test system: HOP-62 NSCLC
[13] = test system: LOX IMVI melanoma
[14] = test system: SR leukemia
[15] = test system: OVCAR-3 ovarian
[16] = test system: NCI-H522 lung
[17] = test system: MDA-MB-231 breast
[18] = test system: 786-0 renal
[19] = test system: NCI/ADR-RES ovarian
[20] = test system: OVCAR-4 ovarian
[21] = test system: HOP-92 NSCLC
[22] = test system: SK-OV-3 ovarian
[23] = test system: SK-MEL-28 melanoma
[24] = test system: K-562 leukemia
[25] = test system: UO-31 renal
[26] = test system: DU-145 prostate
[27] = test system: HL-60(TB) leukemia
[28] = test system: HCT-15 colon
[29] = test system: SW-620 colon
[30] = test system: U251 CNS
[31] = test system: T-47D breast
[32] = test system: TK-10 renal
[33] = test system: ACHN renal
[34] = test system: OVCAR-5 ovarian
[35] = test system: A549 NSCLC
[36] = test system: SK-MEL-2 melanoma
[37] = test system: OVCAR-8 ovarian
[38] = test system: NCI-H226 lung
[39] = test system: MCF7 breast
[40] = test system: HCT-116 colon
[41] = test system: HT29 colon
[42] = test system: UACC-62 melanoma
[43] = test system: COLO 205 colon
[44] = test system: SF-539 CNS
[45] = test system: SN12C renal
[46] = test system: NCI-H23 lung
[47] = test system: M14 melanoma
[48] = test system: UACC-257 melanoma
[49] = test system: RPMI-8226 leukemia
[50] = test system: CAKI-1 renal
[51] = test system: BT-549 breast
[52] = test system: RXF 393 renal
[53] = test system: CCRF-CEM leukemia
[54] = test system: HS 578T breast
[55] = test system: IGROV1 ovarian
[56] = test system: MOLT-4 leukemia

In the case of `CCOC(=O)N1C/C(=C/c2ccc(F)cc2)C(=O)/C(=C/c2ccc(F)cc2)C1`, the GI50 [1] is reported as 2600 nM, the TGI [1] is reported as 10700 nM and the GI50 [2] is reported as 1960 nM. It also gave a TGI [2] of 4560 nM, a GI50 [3] of 2200 nM and a TGI [3] of 5520 nM. It also gave a GI50 [4] of 1840 nM, a TGI [4] of 3290 nM and a GI50 [5] of 641 nM. The TGI [5] was 2040 nM, the GI50 [6] was 2340 nM and the TGI [6] was 5580 nM. For the same molecule, the GI50 [7] was 2160 nM, the TGI [7] was 5120 nM and the GI50 [8] was 1850 nM. It also gave a TGI [8] of 5460 nM, a GI50 [9] of 1360 nM and a TGI [9] of 2670 nM. For the same molecule, the GI50 [10] was 2080 nM, the TGI [10] was 6310 nM and the GI50 [11] was 1220 nM. The TGI [11] was 3730 nM, the GI50 [12] was 2100 nM and the TGI [12] was 4240 nM. For the same molecule, the GI50 [13] was 327 nM, the TGI [13] was 1100 nM and the GI50 [14] was 341 nM. For the same molecule, the TGI [14] was 3610 nM, the GI50 [15] was 1850 nM and the TGI [15] was 3470 nM. For the same molecule, the GI50 [16] was 1950 nM, the TGI [16] was 3980 nM and the GI50 [17] was 1810 nM. It also gave a TGI [17] of 4180 nM, a GI50 [18] of 1690 nM and a TGI [18] of 3620 nM. It also gave a GI50 [19] of 3280 nM, a TGI [19] of 21100 nM and a GI50 [20] of 2240 nM. It also gave a TGI [20] of 6380 nM, a GI50 [21] of 1650 nM and a TGI [21] of 4640 nM. For the same molecule, the GI50 [22] was 2220 nM, the TGI [22] was 4710 nM and the GI50 [23] was 1800 nM. For the same molecule, the TGI [23] was 3350 nM, the GI50 [24] was 754 nM and the TGI [24] was > 100000 nM. The GI50 [25] was 1530 nM, the TGI [25] was 3070 nM and the GI50 [26] was 3480 nM. It also gave a TGI [26] of 10900 nM, a GI50 [27] of 3180 nM and a TGI [27] of 10600 nM. For the same molecule, the GI50 [28] was 1160 nM, the TGI [28] was 3020 nM and the GI50 [29] was 487 nM. It also gave a TGI [29] of 1740 nM, a GI50 [30] of 1190 nM and a TGI [30] of 2550 nM. It also gave a GI50 [31] of 2820 nM, a TGI [31] of 7970 nM and a GI50 [32] of 2870 nM. For the same molecule, the TGI [32] was 6990 nM, the GI50 [33] was 1860 nM and the TGI [33] was 3420 nM. The GI50 [34] was 1890 nM, the TGI [34] was 3830 nM and the GI50 [35] was 2640 nM. For the same molecule, the TGI [35] was 8650 nM, the GI50 [36] was 2880 nM and the TGI [36] was 6390 nM. It also gave a GI50 [37] of 2470 nM, a TGI [37] of 10800 nM and a GI50 [38] of 3520 nM. It also gave a TGI [38] of 19800 nM, a GI50 [39] of 327 nM and a TGI [39] of 1390 nM. For the same molecule, the GI50 [40] was 205 nM, the TGI [40] was 397 nM and the GI50 [41] was 363 nM. For the same molecule, the TGI [41] was 1370 nM, the GI50 [42] was 1610 nM and the TGI [42] was 3390 nM. The GI50 [43] was 1920 nM, the TGI [43] was 3540 nM and the GI50 [44] was 1760 nM. For the same molecule, the TGI [44] was 3300 nM, the GI50 [45] was 1590 nM and the TGI [45] was 3160 nM. For the same molecule, the GI50 [46] was 2350 nM, the TGI [46] was 5670 nM and the GI50 [47] was 2070 nM. It also gave a TGI [47] of 4670 nM, a GI50 [48] of 2860 nM and a TGI [48] of 9650 nM. For the same molecule, the GI50 [49] was 201 nM, the TGI [49] was 772 nM and the GI50 [50] was 3010 nM. For the same molecule, the TGI [50] was 12100 nM, the GI50 [51] was 1650 nM and the TGI [51] was 3090 nM. The GI50 [52] was 1630 nM, the TGI [52] was 3110 nM and the GI50 [53] was 758 nM. For the same molecule, the TGI [53] was 5640 nM, the GI50 [54] was 3130 nM and the TGI [54] was 29000 nM. For the same molecule, the GI50 [55] was 2390 nM, the TGI [55] was 6120 nM and the GI50 [56] was 2600 nM. It also gave a TGI [56] of 7840 nM.
